The results in this text go back to patent publication US8324245B2, “Quinoline derivative and quinazoline derivative inhibiting self-phosphorylation of hepatocytus proliferator receptor, and medicinal composition containing the same” (Kyowa Hakko Kirin Co., Ltd., priority 2001, dated 2012).

This assay deals with T1, met (HGF receptor) in human gastric cancer cells MKN45 (Homo sapiens, UniProt P08581).
T1 construct: endogenous in cells; host or cells: MKN45 human gastric cancer cells
T1 sequence (P08581 25-1390): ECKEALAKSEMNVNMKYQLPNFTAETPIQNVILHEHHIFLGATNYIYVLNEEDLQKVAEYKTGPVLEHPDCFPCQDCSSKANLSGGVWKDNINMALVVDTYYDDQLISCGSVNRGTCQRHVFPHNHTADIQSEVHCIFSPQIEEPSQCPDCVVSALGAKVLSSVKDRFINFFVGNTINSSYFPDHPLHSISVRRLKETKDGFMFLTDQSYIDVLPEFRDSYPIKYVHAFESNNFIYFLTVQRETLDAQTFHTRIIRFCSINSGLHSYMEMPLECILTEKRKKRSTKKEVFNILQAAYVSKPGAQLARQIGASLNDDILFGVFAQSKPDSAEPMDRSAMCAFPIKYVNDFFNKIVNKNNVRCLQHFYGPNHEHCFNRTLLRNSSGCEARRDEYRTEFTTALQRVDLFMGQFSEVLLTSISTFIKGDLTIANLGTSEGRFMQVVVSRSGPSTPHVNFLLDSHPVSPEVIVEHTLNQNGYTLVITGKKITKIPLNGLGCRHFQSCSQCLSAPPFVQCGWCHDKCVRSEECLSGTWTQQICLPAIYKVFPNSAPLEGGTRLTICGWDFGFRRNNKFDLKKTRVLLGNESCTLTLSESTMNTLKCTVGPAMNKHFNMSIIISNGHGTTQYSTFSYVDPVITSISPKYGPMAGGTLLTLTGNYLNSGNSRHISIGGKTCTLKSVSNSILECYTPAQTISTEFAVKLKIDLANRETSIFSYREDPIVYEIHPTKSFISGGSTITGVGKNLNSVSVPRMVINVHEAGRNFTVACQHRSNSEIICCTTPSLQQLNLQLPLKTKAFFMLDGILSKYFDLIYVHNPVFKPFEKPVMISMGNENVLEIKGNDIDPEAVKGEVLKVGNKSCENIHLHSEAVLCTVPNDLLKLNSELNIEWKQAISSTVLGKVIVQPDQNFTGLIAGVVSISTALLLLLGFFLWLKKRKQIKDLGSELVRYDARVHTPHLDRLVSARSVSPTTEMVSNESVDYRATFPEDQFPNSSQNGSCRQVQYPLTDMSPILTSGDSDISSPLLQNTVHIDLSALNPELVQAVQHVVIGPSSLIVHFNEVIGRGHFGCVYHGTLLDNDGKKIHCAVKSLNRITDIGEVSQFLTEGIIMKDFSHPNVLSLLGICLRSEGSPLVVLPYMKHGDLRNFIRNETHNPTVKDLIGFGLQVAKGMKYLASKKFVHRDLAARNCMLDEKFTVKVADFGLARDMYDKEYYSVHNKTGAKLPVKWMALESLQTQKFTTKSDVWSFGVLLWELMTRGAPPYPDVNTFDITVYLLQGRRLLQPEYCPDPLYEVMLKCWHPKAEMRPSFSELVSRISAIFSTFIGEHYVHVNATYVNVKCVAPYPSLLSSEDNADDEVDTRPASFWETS
Description: Inhibitory activity against met-autophosphorylation using ELISA method (2), MKN45 cells, HGF-independent. It counts as cell-based. Put shortly: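 MKN45 cells, 3×10^4 per well in RPMI with 0.1% FCS overnight, were exposed to compound in DMSO for 1 h at 37 °C without HGF. Lysates were captured on anti-phosphotyrosine (PY20) plates, Met detected with anti-Met and peroxidase secondary antibody, absorbance at 450 nm.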
(In general: ELISA stands for enzyme-linked immunosorbent assay.)
One may read the IC50 as the concentration at which inhibition is half-maximal. Turning to `COc1cc2nccc(Oc3ccc(NC(=S)NC(=O)Cc4ccc(F)c(F)c4)cc3F)c2cc1OC` [Example 199, 1-[2-(3,4-difluorophenyl)acetyl]-3-[4-(6,7-dimethoxyquinolin-4-yloxy)-3-fluorophenyl]thiourea], the midpoint of inhibition, the IC50, lay at 241 nM. For `CCOCCC(=O)NC(=S)Nc1ccc(Oc2ccnc3cc(OC)c(OC)cc23)c(F)c1` [Example 165, 1-[4-(6,7-dimethoxyquinolin-4-yloxy)-3-fluorophenyl]-3-(3-ethoxypropionyl)thiourea], half-maximal inhibition (IC50) was put at 495 nM. Compared with the last molecule, the IC50 is about 2.1-fold higher. Then `COC(=O)c1cccc(NC(=O)CC(=O)Nc2ccc(Oc3ccnc4cc(OC)c(OC)cc34)cc2)c1` [Example 213, methyl 3-{2-[4-(6,7-dimethoxyquinolin-4-yloxy)phenylcarbamoyl]acetylamino}benzoate], with 2430 nM; and `COc1cc2c(Oc3ccc(NC(=O)NC(=O)Cc4ccccc4F)cc3F)ccnc2cc1OCCCN1CCCC1` [Example 294, 1-{3-Fluoro-4-[6-methoxy-7-(3-pyrrolidin-1-yl-propoxy)-quinolin-4-yloxy]-phenyl}-3-[2-(2-fluoro-phenyl)-acetyl]-urea], with 23 nM.

For `COc1cc2nccc(Oc3ccc(NC(=S)NC(=O)c4cccc5ccccc45)cc3)c2cc1OC` [Example 56, 1-[4-(6,7-dimethoxyquinolin-4-yloxy)phenyl]-3-(naphthalene-1-carbonyl)thiourea], the IC50 was found to be 140 nM. The molecule `COc1cc2c(Oc3ccc(NC(=S)NC(=O)Cc4ccc(F)cc4)cc3F)ccnc2cc1OCC(O)CN1CCCC1` (centres unmarked) [Example 330, 1-{3-Fluoro-4-[7-(2-hydroxy-3-pyrrolidin-1-yl-propoxy)-6-methoxy-quinolin-4-yloxy]-phenyl}-3-[2-(4-fluoro-phenyl)-acetyl]-thiourea] had an IC50 of 20.6 nM. Then `COc1cc2nccc(Oc3ccc(NC(=O)NC(=O)Nc4ccccc4C(F)(F)F)cc3)c2cc1OC` [Example 240, N-[2-(trifluoromethyl)phenyl]-({[4-(6,7-dimethoxyquinolin-4-yloxy)anilino]carbonyl}amino)methan-amide], with 2740 nM; and `COc1cc2nccc(Oc3ccc(NC(=S)NC(=O)Cc4c(Cl)cccc4Cl)cc3F)c2cc1OC` [Example 97, 1-[2-(2,6-dichlorophenyl)acetyl]-3-[4-(6,7-dimethoxyquinolin-4-yloxy)-3-fluorophenyl]thiourea], with 37.6 nM. Then `COc1cc2nccc(Oc3ccc(NC(=O)NC(=O)Cc4ccc(F)cc4F)cc3F)c2cc1OC` [Example 34, 1-[2-(2,4-difluorophenyl)acetyl]-3-[4-(6,7-dimethoxyquinolin-4-yloxy)-3-fluorophenyl]urea], with 46.3 nM; and `COc1cc2nccc(Oc3ccc(NC(=O)NC(=O)Cc4ccc(F)c(F)c4)cc3)c2cc1OC` [Example 39, 1-[2-(3,4-difluorophenyl)acetyl]-3-[4-(6,7-dimethoxyquinolin-4-yloxy)phenyl]urea], with 114 nM; and `COc1cc2c(Oc3ccc(NC(=O)NC(=O)Cc4ccccc4)cc3F)ccnc2cc1OCCCCN1CCN(C)CC1` [Example 12, 1-(3-fluoro-4-{6-methoxy-7-[4-(4-methyl-piperazin-1-yl)-butoxy]quinolin-4-yloxy}phenyl)-3-phenylacetylurea], with 199 nM.

`COc1cc2nccc(Oc3ccc(NC(=S)NC(=O)c4cccc(C(F)(F)F)c4)cc3)c2cc1OC` [Example 145, 1-[4-(6,7-dimethoxyquinolin-4-yloxy)phenyl]-3-(3-trifluoromethyl-benzoyl)thiourea] gave an IC50 of 364 nM. Then `COc1cc2nccc(Oc3cc(C)c(NC(=S)NC(=O)Cc4ccccc4)cc3C)c2cc1OC` [Example 163, 1-[4-(6,7-dimethoxyquinolin-4-yloxy)-2,5-dimethylphenyl]-3-phenylacetylthiourea], with 202 nM; and `COC(=O)c1ccccc1NC(=O)NC(=O)Nc1ccc(Oc2ccnc3cc(OC)c(OC)cc23)cc1` [Example 245, methyl 2-({({[4-(6,7-dimethoxyquinolin-4-yloxy)anilino]carbonyl}amino)carbonyl}amino)benzoate], with 308 nM; and `COc1cc2nccc(Oc3ccc(NC(=S)NC(=O)Cc4ccccc4C(F)(F)F)c(F)c3)c2cc1OC` [Example 200, 1-[4-(6,7-dimethoxyquinolin-4-yloxy)-2-fluorophenyl]-3-[2-(2-trifluoromethylphenyl)acetyl]-thiourea], with 305 nM. In turn, `COc1cc2nccc(Oc3ccc(NC(=S)NC(=O)Cc4ccc(Cl)cc4)cc3)c2cc1OC` [Example 187, 1-[2-(4-chlorophenyl)acetyl]-3-[4-(6,7-dimethoxyquinolin-4-yloxy)phenyl]thiourea] returned an IC50 of 258 nM. `COc1cc2nccc(Oc3ccc(NC(=S)NC(=O)Cc4cccc(Cl)c4)cc3Cl)c2cc1OC` [Example 174, 1-[3-chloro-4-(6,7-dimethoxyquinolin-4-yloxy)phenyl]-3-[2-(3-chlorophenyl)acetyl]thiourea] showed an IC50 of 252 nM. For `COc1cc2nccc(Oc3ccc(NC(=S)NC(=O)C4CCCC4)c(F)c3)c2cc1OC` [Example 143, 1-cyclopentanecarbonyl-3-[4-(6,7-dimethoxy-quinolin-4-yloxy)-2-fluorophenyl]thiourea] the value was 3590 nM; for `COc1cc2c(Oc3ccc(NC(=O)NC(=O)Cc4ccccc4F)cc3F)ccnc2cc1OCCCn1ccnc1` [Example 306, 1-{3-Fluoro-4-[7-(3-imidazol-1-yl-propoxy)-6-methoxy-quinolin-4-yloxy]-phenyl}-3-[2-(2-fluoro-phenyl)-acetyl]-urea], 33.9 nM. For `COc1cc2c(Oc3ccc(NC(=O)NC(=O)Cc4ccc(F)cc4)c(F)c3)ccnc2cc1OCCCCN1CCOCC1` [Example 44, 1-{2-fluoro-4-[6-methoxy-7-(4-morpholin-4-yl-butoxy)quinolin-4-yloxy]phenyl}-3-[2-(4-fluorophenyl)-acetyl]urea] the value was 291 nM. In the case of `COc1cc2nccc(Oc3ccc(NC(=O)NC(=O)Nc4cccc(C)n4)cc3)c2cc1OC` [Example 234, N-(6-methyl-2-pyridyl)-({[4-(6,7-dimethoxy-quinolin-4-yloxy)anilino]carbonyl}amino)methanamide], half-maximal inhibition (IC50) was put at 457 nM.

`COc1cc2nccc(Oc3ccc(NC(=S)NC(=O)Cc4c(F)ccc(F)c4F)cc3Cl)c2cc1OC` [Example 207, 1-[3-chloro-4-(6,7-dimethoxyquinolin-4-yloxy)phenyl]-3-[2-(2,3,6-trifluorophenyl)acetyl]-thiourea]: the half-inhibitory concentration (IC50) worked out at 300 nM. Compared with the last molecule, the IC50 is about 1.5-fold lower. For `COc1cc2nccc(Oc3ccc(NC(=O)CC(=O)NCC4CCCCC4)cc3)c2cc1OC` [Example 218, N-cyclohexylmethyl-N′-[4-(6,7-dimethoxy-quinolin-4-yloxy)phenyl]malonamide] the value was 479 nM.

Molecule `COc1cc2nccc(Oc3ccc(NC(=S)NC(=O)Cc4cccc(F)c4)cc3F)c2cc1OC` [Example 75, 1-[4-(6,7-dimethoxyquinolin-4-yloxy)-3-fluoro-phenyl]-3-[2-(3-fluorophenyl)acetyl]thiourea] showed an IC50 of 33.6 nM.

`COc1cc2nccc(Oc3ccc(NC(=O)NC(=O)Cc4ccsc4)cc3Cl)c2cc1OC` [Example 21, 1-[3-chloro-4-(6,7-dimethoxyquinolin-4-yloxy)-phenyl]-3-(2-thiophen-3-ylacetyl)urea]: the IC50 stood at 188 nM. Then `COc1cc2nccc(Oc3ccc(NC(=O)NC(=O)Nc4ccc(C)cn4)cc3)c2cc1OC` [Example 235, N-(5-methyl-2-pyridyl)-({[4-(6,7-dimethoxy-quinolin-4-yloxy)anilino]carbonyl}amino)methanamide], with 215 nM; and `COc1cc2c(Oc3ccc(NC(=O)NC(=O)Cc4ccccc4)cc3F)ccnc2cc1O` [Example 106, N-{3-Fluoro-4-[(7-hydroxy-6-methoxy-4-quinolyl)-oxy]phenyl}-N′-(2-phenylacetyl)urea], with 42.7 nM. Turning to `COc1cc2nccc(Oc3ccc(NC(=S)NC(=O)CCSC)cc3F)c2cc1OC` [Example 147, 1-[4-(6,7-dimethoxyquinolin-4-yloxy)-3-fluorophenyl]-3-(3-methylsulfanylpropionyl)thiourea], the half-maximal inhibitory concentration (IC50) was determined as 1170 nM. With `COc1cc2nccc(Oc3ccc(NC(=O)CC(=O)Nc4ccc(F)cc4F)cc3)c2cc1OC` [Example 102, N-(2,4-difluorophenyl)-N′-[4-(6,7-dimethoxy-quinolin-4-yloxy)phenyl]malonamide], the IC50 is 91.8 nM. This IC50 is about 13-fold lower than that of the molecule before. Then `COc1cc2nccc(Oc3ccc(NC(=S)NC(=O)Cc4ccccc4F)cc3F)c2cc1OC` [Example 81, 1-[4-(6,7-dimethoxyquinolin-4-yloxy)-3-fluoro-phenyl]-3-[2-(2-fluorophenyl)acetyl]thiourea], with 27.7 nM; and `COCCC(=O)NC(=S)Nc1ccc(Oc2ccnc3cc(OC)c(OC)cc23)c(Cl)c1` [Example 180, 1-[3-chloro-4-(6,7-dimethoxyquinolin-4-yloxy)phenyl]-3-(3-methoxy-propionyl)thiourea], with 2560 nM.

In turn, `COc1cc2c(Oc3ccc(NC(=O)NC(=O)Cc4ccccc4)c(F)c3)ccnc2cc1OCCCN1CCOCC1` [Example 287] returned an IC50 of 22.5 nM. Then `COc1cc2c(Oc3ccc(NC(=O)NC(=O)Cc4ccc(F)cc4)c(F)c3)ccnc2cc1OCCCN1CCCCC1` [Example 50, 1-{2-fluoro-4-[6-methoxy-7-(3-piperidin-1-yl-propoxy)quinolin-4-yloxy]phenyl}-3-[2-(4-fluorophenyl)-acetyl]urea], with 235 nM; and `COc1cc2nccc(Oc3ccc(NC(=O)NC(=O)CSC4CCCC4)cc3Cl)c2cc1OC` [Example 116, 1-[3-chloro-4-(6,7-dimethoxyquinolin-4-yloxy)phenyl]-3-(2-cyclopentylsulfanylacetyl)urea], with 344 nM. For `COc1cc2nccc(Oc3ccc(NC(=S)NC(=O)Cc4c(F)ccc(F)c4F)c(F)c3)c2cc1OC` [Example 205, 1-[4-(6,7-dimethoxyquinolin-4-yloxy)-2-fluorophenyl]-3-[2-(2,3,6-trifluorophenyl)acetyl]-thiourea] the value was 265 nM.
